Converted amounts (≈) assume the structure as drawn.
Experiments:
1,3-beta-glucan synthase = 1,3-beta-glucan synthase (Candida glabrata, UniProt F5BCZ9); assay: Inhibition of 1,3-beta-glucan synthase; design: species or system Candida glabrata CBS 138
Candida albicans [1] = assay: Tested for minimum fungicidal concentration (MFC) against Candida albicans (MY 1055); format: functional
Candida albicans [2] = assay: Tested for in vitro minimum fungicidal concentration (MFC) against C. albicans; 0.25-1; format: functional
[3] = tested on: Meyerozyma guilliermondii; assay: Tested for in vitro minimum fungicidal concentration (MFC) against Candida guilliermondii 1-16; format: functional
Pichia kudriavzevii [4] = assay: Tested for in vitro minimum fungicidal concentration (MFC) against C. krusei; 2-4; format: functional
Kluyveromyces marxianus [5] = assay: Tested for in vitro minimum fungicidal concentration (MFC) againstC. pseudotropicalis; 0.25-1; format: functional
Nakaseomyces glabratus [6] = assay: Tested for in vitro minimum fungicidal concentration (MFC) against C. glabrata; 1-4; format: functional
Candida parapsilosis [7] = assay: Tested for in vitro minimum fungicidal concentration (MFC) against C. parapsilosis; 0.25-1; format: functional
Candida tropicalis [8] = assay: Tested for in vitro minimum fungicidal concentration (MFC) against C. tropicalis; 0.25-1; format: functional
Clavispora lusitaniae [9] = assay: Tested for in vitro minimum fungicidal concentration (MFC) against Candida lusitaniae 0.125-1; format: functional
Cryptococcus neoformans [10] = assay: Tested for in vitro minimum fungicidal concentration (MFC) against C. neoformans; 8-32; format: functional
Mus musculus [11] = species on record: Mus musculus; assay: […] anti-candida activity expressed as ED99.9 in a mouse model of disseminated candidiasis (TOKA); format: functional
Mus musculus [12] = assay: In vivo effective intraperitoneal dose to achieve least 50% survival in a mouse model of disseminated aspergillosis; format: functional; conditions: ip
Mus musculus [13] = species on record: Mus musculus; assay: Percentage of mice with complete eradication of candida in kidneys; format: functional, Kidney
[14] = Acute toxicity in mice after intravenous administration; conditions: mouse, in vivo
Candida albicans [15] = assay: Tested for in vitro minimum fungicidal concentration (MFC) against C. albicans; 0.03-0.5; format: functional
Pichia kudriavzevii [16] = assay: Tested for in vitro minimum fungicidal concentration (MFC) against C. krusei; 1-2; format: functional
Kluyveromyces marxianus [17] = assay: Tested for in vitro minimum fungicidal concentration (MFC) against C. pseudotropicalis; 0.06-0.5; format: functional
Nakaseomyces glabratus [18] = assay: Tested for in vitro minimum fungicidal concentration (MFC) against C. glabrata; 0.5-1; format: functional
[19] = tested on: Meyerozyma guilliermondii; assay: Tested for in vitro minimum fungicidal concentration (MFC) against C. guilliermondii; 0.5-4; format: functional
Candida tropicalis [20] = assay: Tested for in vitro minimum fungicidal concentration (MFC) against C. tropicalis; 0.06-1; format: functional
Clavispora lusitaniae [21] = assay: Tested for in vitro minimum fungicidal concentration (MFC) against C. lusitaniae; 0.06-0.5; format: functional
Candida albicans [22] = assay: Tested for in vitro minimum fungicidal concentration (MFC) against C. albicans; 0.06-0.5; format: functional
Pichia kudriavzevii [23] = assay: Tested for in vitro minimum fungicidal concentration (MFC) against C. krusei; 0.25-0.5; format: functional
Candida parapsilosis [24] = assay: Tested for in vitro minimum fungicidal concentration (MFC) against C. parapsilosis; 0.5-1; format: functional
[25] = tested on: Meyerozyma guilliermondii; assay: Tested for in vitro minimum fungicidal concentration (MFC) against C. guilliermondii; 0.125-0.5; format: functional
Candida tropicalis [26] = assay: Tested for in vitro minimum fungicidal concentration (MFC) against C. tropicalis; 0.25-0.5; format: functional
Kluyveromyces marxianus [27] = assay: Tested for in vitro minimum fungicidal concentration (MFC) against C. pseudotropicalis; 0.125-0.5; format: functional
Clavispora lusitaniae [28] = assay: Tested for in vitro minimum fungicidal concentration (MFC) against C. lusitaniae; 0.5-2; format: functional
Nakaseomyces glabratus [29] = assay: Tested for in vitro minimum fungicidal concentration (MFC) against C. glabrata; 0.125-0.5; format: functional
Cryptococcus neoformans [30] = assay: Tested for in vitro minimum fungicidal concentration (MFC) against C. neoformans; 0.125-0.5; format: functional

1,3-beta-glucan synthase, sequence (F5BCZ9 whole entry): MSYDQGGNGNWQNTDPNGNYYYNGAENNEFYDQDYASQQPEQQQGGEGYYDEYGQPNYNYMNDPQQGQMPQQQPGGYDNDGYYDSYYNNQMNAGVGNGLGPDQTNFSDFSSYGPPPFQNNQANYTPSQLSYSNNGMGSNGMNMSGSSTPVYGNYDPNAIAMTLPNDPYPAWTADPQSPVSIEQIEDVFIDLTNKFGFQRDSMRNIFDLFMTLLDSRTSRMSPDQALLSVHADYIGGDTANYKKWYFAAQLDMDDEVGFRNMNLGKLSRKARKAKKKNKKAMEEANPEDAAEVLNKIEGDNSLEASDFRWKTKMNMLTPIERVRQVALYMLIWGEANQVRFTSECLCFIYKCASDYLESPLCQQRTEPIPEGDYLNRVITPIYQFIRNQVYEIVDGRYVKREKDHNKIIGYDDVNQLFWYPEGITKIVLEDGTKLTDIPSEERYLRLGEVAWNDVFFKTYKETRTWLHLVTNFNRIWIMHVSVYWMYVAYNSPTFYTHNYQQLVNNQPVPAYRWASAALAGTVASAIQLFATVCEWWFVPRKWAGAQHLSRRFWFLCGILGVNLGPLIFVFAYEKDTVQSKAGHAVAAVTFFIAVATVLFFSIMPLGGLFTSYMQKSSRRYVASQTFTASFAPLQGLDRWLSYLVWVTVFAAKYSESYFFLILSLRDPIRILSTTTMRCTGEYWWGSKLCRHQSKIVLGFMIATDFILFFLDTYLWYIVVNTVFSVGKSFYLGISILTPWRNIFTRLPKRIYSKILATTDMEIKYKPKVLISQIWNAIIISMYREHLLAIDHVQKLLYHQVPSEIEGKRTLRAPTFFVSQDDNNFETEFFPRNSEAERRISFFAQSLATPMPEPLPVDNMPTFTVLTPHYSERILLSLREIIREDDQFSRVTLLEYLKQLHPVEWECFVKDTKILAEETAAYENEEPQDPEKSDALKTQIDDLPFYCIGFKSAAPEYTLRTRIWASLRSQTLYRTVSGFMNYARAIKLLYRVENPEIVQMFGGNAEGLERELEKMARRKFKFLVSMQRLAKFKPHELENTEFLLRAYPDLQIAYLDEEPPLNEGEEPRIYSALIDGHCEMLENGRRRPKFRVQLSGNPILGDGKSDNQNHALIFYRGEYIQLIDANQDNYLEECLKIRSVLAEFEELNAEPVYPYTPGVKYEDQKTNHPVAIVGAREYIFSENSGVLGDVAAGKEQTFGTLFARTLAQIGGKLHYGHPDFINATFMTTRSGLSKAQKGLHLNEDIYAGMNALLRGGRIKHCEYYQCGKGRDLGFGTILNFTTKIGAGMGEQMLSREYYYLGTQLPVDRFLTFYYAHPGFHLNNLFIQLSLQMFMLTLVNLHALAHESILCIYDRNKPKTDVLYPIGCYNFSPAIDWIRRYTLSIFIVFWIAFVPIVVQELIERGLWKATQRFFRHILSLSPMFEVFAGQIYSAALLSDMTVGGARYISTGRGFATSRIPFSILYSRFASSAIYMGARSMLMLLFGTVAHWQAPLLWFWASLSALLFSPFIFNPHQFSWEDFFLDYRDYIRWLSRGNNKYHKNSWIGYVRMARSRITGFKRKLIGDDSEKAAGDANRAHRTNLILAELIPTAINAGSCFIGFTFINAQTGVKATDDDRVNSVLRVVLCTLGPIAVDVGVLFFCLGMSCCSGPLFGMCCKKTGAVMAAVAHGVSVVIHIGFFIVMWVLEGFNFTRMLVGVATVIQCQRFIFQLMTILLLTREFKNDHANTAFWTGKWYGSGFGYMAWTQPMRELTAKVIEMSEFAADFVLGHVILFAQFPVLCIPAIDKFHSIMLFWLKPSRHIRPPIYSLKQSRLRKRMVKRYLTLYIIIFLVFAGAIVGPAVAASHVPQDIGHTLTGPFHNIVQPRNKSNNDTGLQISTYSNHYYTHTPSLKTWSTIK

For CCC(C)CC(C)CCCCCCCCC(=O)NC1C[C@@H](O)[C@@H](OCCN)NC(=O)C2CN(C[C@@H]2O)C(=O)[C@H]([C@H](O)CCNC(=O)[C@@H](N)CCCN)NC(=O)[C@H]([C@H](O)[C@@H](O)c2ccc(O)cc2)NC(=O)C2C[C@@H](O)CN2C(=O)[C@H]([C@@H](C)O)NC1=O (some centres undefined), the IC50 (1,3-beta-glucan synthase) was 1.5 nM, the MFC (Candida albicans [1]) was < 0.06 µg/mL and the MFC90 (Candida albicans [2]) was 1 µg/mL (≈ 0.827 µM). The MFC90 [3] was 8 µg/mL (≈ 6.62 µM), the MFC90 (Pichia kudriavzevii [4]) was 4 µg/mL (≈ 3.31 µM) and the MFC90 (Kluyveromyces marxianus [5]) was 1 µg/mL (≈ 0.827 µM). It also gave an MFC90 (Nakaseomyces glabratus [6]) of 2 µg/mL (≈ 1.65 µM), an MFC90 (Candida parapsilosis [7]) of 1 µg/mL (≈ 0.827 µM) and an MFC90 (Candida tropicalis [8]) of 1 µg/mL (≈ 0.827 µM). It also gave an MFC90 (Clavispora lusitaniae [9]) of 0.5 µg/mL (≈ 0.414 µM), an MFC90 (Cryptococcus neoformans [10]) of 32 µg/mL (≈ 26.5 µM) and an ED99.9 (Mus musculus [11]) of 0.09 mg/kg. It also gave an ED50 (Mus musculus [12]) of 0.03 mg/kg, a Sterilized (Mus musculus [13]) of 70% and a Dose [14] of 80 mg/kg.
Work on CCC(C)CC(C)CCCCCCCCC(=O)NC1C[C@@H](O)[C@@H](OCCN)NC(=O)C2CN(C[C@@H]2O)C(=O)[C@H]([C@H](O)CCN)NC(=O)[C@H]([C@H](O)[C@@H](O)c2ccc(O)cc2)NC(=O)C2C[C@@H](O)CN2C(=O)[C@H]([C@@H](C)O)NC1=O (some centres undefined) yielded an IC50 (1,3-beta-glucan synthase) of 1 nM, an MFC (Candida albicans [1]) of 0.125 µg/mL (≈ 0.114 µM) and an MFC90 (Candida albicans [15]) of 0.5 µg/mL (≈ 0.457 µM). The MFC90 (Pichia kudriavzevii [16]) was 1 µg/mL (≈ 0.914 µM), the MFC90 (Kluyveromyces marxianus [17]) was 0.5 µg/mL (≈ 0.457 µM) and the MFC90 (Nakaseomyces glabratus [18]) was 1 µg/mL (≈ 0.914 µM). It also gave an MFC90 (Candida parapsilosis [7]) of 0.5 µg/mL (≈ 0.457 µM), an MFC90 [19] of 4 µg/mL (≈ 3.66 µM) and an MFC90 (Candida tropicalis [20]) of 0.5 µg/mL (≈ 0.457 µM). The MFC90 (Clavispora lusitaniae [21]) was 0.5 µg/mL (≈ 0.457 µM), the MFC90 (Cryptococcus neoformans [10]) was 32 µg/mL (≈ 29.2 µM) and the ED99.9 (Mus musculus [11]) was 0.09 mg/kg. It also gave an ED50 (Mus musculus [12]) of 0.03 mg/kg, a Sterilized (Mus musculus [13]) of 80% and a Dose [14] of 30 mg/kg.
C[C@@H]1[C@H](O)[C@@H](C)/C=C/C=C/C=C/C=C/C=C/C=C/C=C/[C@H](O[C@@H]2O[C@H](C)[C@@H](O)[C@H](N)[C@@H]2O)C[C@@H]2O[C@](O)(C[C@@H](O)C[C@@H](O)[C@H](O)CC[C@@H](O)C[C@@H](O)CC(=O)O[C@H]1C)C[C@H](O)[C@H]2C(=O)O [AMPHOTERICIN B] gave an MFC90 (Candida albicans [22]) of 0.25 µg/mL (≈ 0.271 µM), an MFC90 (Pichia kudriavzevii [23]) of 0.5 µg/mL (≈ 0.541 µM) and an MFC90 (Candida parapsilosis [24]) of 1 µg/mL (≈ 1.08 µM). It also gave an MFC90 [25] of 0.5 µg/mL (≈ 0.541 µM), an MFC90 (Candida tropicalis [26]) of 0.5 µg/mL (≈ 0.541 µM) and an MFC90 (Kluyveromyces marxianus [27]) of 0.5 µg/mL (≈ 0.541 µM). It also gave an MFC90 (Clavispora lusitaniae [28]) of 2 µg/mL (≈ 2.16 µM), an MFC90 (Nakaseomyces glabratus [29]) of 0.5 µg/mL (≈ 0.541 µM) and an MFC90 (Cryptococcus neoformans [30]) of 0.5 µg/mL (≈ 0.541 µM).

Source: ChEMBL document CHEMBL1130502, “Lipopeptide antifungal agents: Amine conjugates of the semi-synthetic pneumocandins L-731,373 and L-733,560” (Bioorg Med Chem Lett, 1997)
